The values that follow come from PMC6105163, “Abaloparatide Exerts Bone Anabolic Effects with Less Stimulation of Bone Resorption-Related Factors: A Comparison with Teriparatide” (Calcified Tissue International, 2018).

One series concerns OVX rats. The series can be described thus: L4 vertebral bone strength in OVX rats. Format: in vivo, Sprague–Dawley rats (female). To be noted: once daily s.c. for 28 days, day 28, vs OVX, n = 8 or 9. An excerpt: Ten-week-old female Sprague–Dawley rats were purchased from Charles River Laboratories Japan, Inc. (Kanagawa, Japan) and ovariectomized at 12 weeks old. Thirty-five days after surgery, rats received once daily subcutaneous injection of ABL, TPTD, or vehicle (saline containing 0.1% heat-inactivated rat serum) for 28 days. Day 0 indicates the day when administration was started. On day 26, rats were anesthetized with intraperitoneally administered pentobarbital sodium and the lumbar spine (L4 and L5) BMD was measured with a PIXImus2 (GE Healthcare, Chicago, IL). Blood (collected from the tail vein) and urine samples were obtained on day 28. Prior to collection, rats were fasted for 15–17 h. Rats were euthanized after the blood and urine collection, and the lumbar spine was removed for the measurement of bone strength. All experimental procedures were approved by the Animal Care and Use Committee of Teijin Institute for Bio-Medical Research.
L4 was isolated from the lumbar spine. The height of the vertebral body was measured with a vernier caliper. To obtain vertebral body specimens, the cranial and caudal ends of the vertebral body were cut with a diamond saw to a height of 4 mm. Bone strength was measured with a MZ-500S (MARUTO Testing Machine Company, Tokyo, Japan).

Series [1] relates to SaOS-2. In words: M-CSF protein secretion (ELISA). Format: cell-based, human. To be noted: 100 nmol/L, n = 3; for M-CSF protein secretion: continuous treatment (Fig. 2c), ABL and TPTD did not differ significantly. Here is the method: SaOS-2 was cultured in 48-well plates at a density of 5 × 10^4 cells/well in DM for 10 days. The medium was replaced with serum-free DM for culture under starvation conditions. Twenty-four hours after the start of starvation, cells were treated with ABL and TPTD at a concentration of 100 nmol/L. Six hours after treatment, cells were washed with PBS twice, and cultured with peptide-free or peptide-containing medium for the rest of the experimental period.
Human Quantikine M-CSF, Sclerostin, and DKK1 ELISA kits (R&D Systems, Minneapolis, MN, USA) were used to quantify M-CSF, sclerostin, and DKK1, respectively, in the cell supernatants according to the manufacturer’s instructions.
In general terms: ELISA stands for enzyme-linked immunosorbent assay.

Series [2] relates to SaOS-2. In words: Bone formation-related factor gene expression (qRT-PCR). The note with it: for IGF-1 gene expression / osteocalcin gene expression: 100 nmol/L once daily 11 days, 6-h exposure per 24-h cycle (Fig. 3b), n = 3; for IGF-1 and osteocalcin expression, continuous treatment: data not shown. In kind it is cell-based, human. Here is the method:
SaOS-2 was cultured in 12-well plates at a density of 2 × 10^5 cells/well in DM. Concomitant with the initiation of cell differentiation, cells were treated with 100 nmol/L of ABL and TPTD once daily for 11 days. The peptide exposure was limited to the first 6 h of the 24-h incubation cycle, and the medium was replaced with peptide-free medium for the rest of the cycle after washing with PBS twice.
(§1) Cells were lysed and total RNA was extracted using an RNeasy Mini Kit (Qiagen, Valencia, CA, USA). RNA was reverse-transcribed into cDNA using the SuperScript III First-Strand Synthesis System for RT-PCR (Invitrogen, Carlsbad, CA, USA). Quantitative RT-PCR was performed on a 7500 Real-Time PCR System (Applied Biosystems) using Power SYBR Green PCR Master Mix (Thermo Fisher Scientific, Waltham, MA, USA). The primers used in this study were as follows: 5′-CGATGGTGGATGGCTCATG-3′ (forward) and 5′-ACCAGATGGGATGTCGGTG-3′ (reverse) for RANKL, 5′-[…]-3′ (forward) and 5′-[…]-3′ (reverse) for M-CSF, 5′-[…]-3′ (forward) and 5′-[…]-3′ (reverse) for OPG, 5′-[…]-3′ (forward) and 5′-[…]-3′ (reverse) for IGF1, 5′-[…]-3′ (forward) and 5′-[…]-3′ (reverse) for osteocalcin, 5′-[…]-3′ (forward) and 5′-[…]-3′ (reverse) for DMP1, 5′-[…]-3′ (forward) and 5′-[…]-3′ (reverse) for SOST, 5′-[…]-3′ (forward) and 5′-[…]-3′ (reverse) for DKK1, 5′-GTGAAGGTCGGAGTCAACG-3′ (forward) and 5′-TGAGGTCAATGAAGGGGTC-3′ (reverse) for GAPDH.
In general terms: Real-time PCR tracks product formation cycle by cycle.

A further series concerns osteocyte-like SaOS-2. In words: WNT signaling antagonist gene expression (qRT-PCR). Format: cell-based, human. To be noted: 100 nmol/L, n = 3; for DKK1 (gene expression and protein secretion) / sclerostin (gene expression and protein secretion): continuous treatment (Fig. 4e, f), qRT-PCR and ELISA; for DKK1 gene expression / sclerostin gene expression: treatment limited to first 6 h (Fig. 4c), day 30 cells. As to the method: SaOS-2 was cultured in 48-well plates at a density of 5 × 10^4 cells/well in DM for 30 days. Cells were treated with ABL and TPTD at a concentration of 100 nmol/L. Six hours after treatment, cells were washed with PBS twice, and cultured with peptide-free or peptide-containing medium for the rest of the experimental period.
as §1

A further series deals with PTH1R. The note with it: ref [22]; cited from earlier work. An excerpt: It is unclear why ABL stimulates lower expression of bone resorption-related factors than TPTD with transient treatment only. Recently, it was reported that PTH1R has at least two types of active conformations and that the binding conformation selectivity differs between ABL and TPTD [21, 22]. This difference further affects the duration of the downstream signaling. […] We therefore thought that the difference in bone resorption-related factors could arise from the d ...

Series [3] deals with patients with osteoporosis. To be noted: cited from earlier work.
The test system of a further series is osteoblasts. The note with it: cited from earlier work. The source says:
The mechanism of action of TPTD on bone turnover is not fully understood; however, many studies have examined the molecular mechanisms in recent decades. According to a previous study, PTH(1–34) acts on osteoblasts and indirectly induces bone resorption by activating osteoclasts. PTH(1–34) increases the expression of receptor activator of nuclear factor kappa-B ligand (RANKL) and macrophage colony-stimulating factor (M-CSF) and decreases the expression of osteoprotegerin (OPG), a decoy receptor of RANKL [9]. These effects of PTH(1–34) further promote the maturation of osteoclasts with ... || We next investigated the effect of ABL on bone formation in SaOS-2. In the previous study, bone formation related to PTH1R signaling was enhanced by the intermittent treatment of TPTD in osteoblasts. This anabolic effect of intermittent TPTD treatment was mediated by IGF-1, which promoted the differentiation and mineralization of osteoblasts. We therefore evaluated the effects on IGF-1 and osteocalcin, a marker gene for differentiated osteoblasts, with a repeating 6-h exposure cycle of ABL and TPTD in SaOS-2 (Fig. 3a). As expected, ABL as well as TPTD increased the gene expressio ...

[4] abbreviates: subcutaneous injection, ref [14].

As to “[Glu^22,25, Leu^23,28,31, Aib^29, Lys^26,30] human PTHrP(1–34)–NH2 [Abaloparatide]”, in the series with OVX rats, the “lumbar spine (L4) bone strength” value is “significantly increased”. In the series on SaOS-2 [1], the M-CSF protein secretion entry is recorded as “increased”. Moreover, in the series with SaOS-2 [1] (transient treatment (first 6 h) (Fig. 2e)), the “M-CSF protein secretion, ABL vs TPTD” value is “significantly less with ABL treatment than with TPTD”. Moreover, in the series with SaOS-2 [2], the IGF-1 gene expression entry is “increased”; the osteocalcin gene expression entry is on record as “increased”; the “IGF-1 and osteocalcin expression, continuous treatment” value was “could hardly detect”. Moreover, the “IGF-1 and osteocalcin effects, ABL vs TPTD” value with SaOS-2 [2] (100 nmol/L, repeating 6-h exposure cycle, 11 days (Fig. 3b)) is recorded as “not significantly different”. Also, in the series on osteocyte-like SaOS-2, the “DKK1 (gene expression and protein secretion)” value is recorded as “similarly inhibited”; the “sclerostin (gene expression and protein secretion)” value is given as “similarly inhibited”; the DKK1 gene expression result is listed as “similarly suppressed”; the sclerostin gene expression entry is listed as “similarly suppressed”. The “duration of cAMP production after wash-out of unbound ligand” value with PTH1R is reported as “transient”. For the same substance, in series [3] (daily subcutaneous, ref [14]), the “BMD at the hip and spine” value was “robust BMD increases”; the “incidence of vertebral and non-vertebral fractures” value is “reduced incidence”. The “calcemic effect vs TPTD” value in series [3] (human, in vivo, sc) is “reduced as compared with TPTD”. Besides, in series [3] (ref [14]), the “bone formation and resorption markers” value is “increased both bone formation and resorption”; the “bone formation and resorption markers vs TPTD” value was “attenuated as compared with TPTD”. Besides, in series [3] (setting [4]), the bone formation marker entry is on record as “increased” and the “bone resorption marker vs TPTD” value is reported as “less stimulation of the bone resorption marker than observed for TPTD”.
Turning to human PTH(1–34) [Teriparatide], in the series on OVX rats, the “lumbar spine (L4) bone strength” value is on record as “significantly increased”. In addition, in the series with SaOS-2 [1], the M-CSF protein secretion entry is on record as “increased”. Besides, in the series on SaOS-2 [2], the IGF-1 gene expression result was “increased”; the osteocalcin gene expression entry is listed as “increased”; the “IGF-1 and osteocalcin expression, continuous treatment” value is given as “could hardly detect”. Moreover, in the series with osteocyte-like SaOS-2, the “DKK1 (gene expression and protein secretion)” value was “similarly inhibited”; the “sclerostin (gene expression and protein secretion)” value is on record as “similarly inhibited”; the DKK1 gene expression entry was “similarly suppressed”; the sclerostin gene expression entry is recorded as “similarly suppressed”. Further, in the series on PTH1R, the “duration of cAMP production after wash-out of unbound ligand” value is “sustained after the unbound ligand is washed out”. Besides, the “bone formation related to PTH1R signaling” value in the series on osteoblasts (intermittent treatment, osteoblasts, ref [18]) is recorded as “enhanced”. In the series on osteoblasts (ref [9]), the OPG expression result was “decreases”; the “RANKL and M-CSF expression” value is on record as “increases”. The IGF-1 expression result in the series on osteoblasts (ref [10]) was “enhancement”.
